Experimental data published in US20100056468A1, “Pyrimidine Derivatives As Anticancer Agents” (University Health Network, priority 2007, published 2010).
pIC50: −log10 of the molar value.

What was measured:
Assay in all cases: In vitro cell proliferation assay (WST.1, Table 5)
LOX = assay type: cell-based, human; conditions: Homo sapiens, 72 h, day 3
Description: (§1) These cell lines were grown in Iscove's MDM supplemented with 5% fetal calf serum (FCS), 50 μM 2-mercaptoethanol, 100 μg/ml penicillin, and 100 μg/ml streptomycin. Cell lines growing in suspension were maintained at 0.5-1.5×10^6 cell/ml, while adherent cell lines were maintained at subconfluent densities.
(§2) Cell lines were seeded in triplicate at 10^4 cells/100 μl in 96-well plates. Peripheral blood mononuclear cells were seeded in triplicate at 10^5 cells/100 μl in 96-well plate. Different test compounds were added immediately at final concentrations ranging between 0 to 100 μM. All compounds were dissolved in sterile deionized water, so water was added to the control wells. On day 3, WST.1 assay (Roche) was used to measure the effect of different test compounds on cell growth. WST.1 assay is a calorimetric assay for the nonradioactive quantification of cell proliferation, cell viability, and cytotoxicity. The assay was performed according to manufacturer's instructions (Roche). It relies on the cleavage by cellular enzymes of WST.1 (water soluble tetrazolium salt: 4-[3-(4-iodophenyl)-2-(4-nitrophenyl)-2H-5-tetrazolio]-1,3-benzene disulfonate) to formazan. The amount of formazan dye formed correlates to the number of metabolically active cells in the culture and is readily read in an ELISA microplate reader using an absorbance wavelength of 440 nm. These OD values are plotted against concentrations of different compounds and IC50 is determined for each compound.

PC3 = assay type: cell-based; conditions: Homo sapiens, PC-3, 72 h; PC3, day 3
Description: as §1, §2

OCI-AML-2 = assay type: cell-based; conditions: Homo sapiens, OCI-AML2, 72 h; OCI-AML-2, day 3
Description: as §1, §2

OCI-My-2 = assay type: cell-based; conditions: Homo sapiens, 72 h; OCI-My-2, day 3
Description: as §1, §2

OCI-AML-1 = assay type: cell-based; conditions: Homo sapiens, 72 h; OCI-AML-1, day 3
Description: as §1, §2

OCI-Ly-7 = assay type: cell-based; conditions: Homo sapiens, OCI-Ly7, 72 h; OCI-Ly-7, day 3
Description: as §1, §2

COLO205 = assay type: cell-based; conditions: Homo sapiens, COLO 205, 72 h; COLO205, day 3
Description: as §1, §2

CCD967 = assay type: cell-based; conditions: Homo sapiens, CCD-967, 72 h; CCD967 normal skin line, day 3
Description: as §1, §2

MDA468 = assay type: cell-based; conditions: Homo sapiens, 72 h; MDA468, day 3
Description: as §1, §2

SNB19 = assay type: cell-based; conditions: Homo sapiens, SNB-19, 72 h; SNB19, day 3
Description: as §1, §2

MCF7 = assay type: cell-based; conditions: Homo sapiens, 72 h; MCF7, day 3
Description: as §1, §2

SKW3 = assay type: cell-based; conditions: Homo sapiens, 72 h; SKW3, day 3
Description: as §1, §2

T47D = assay type: cell-based; conditions: Homo sapiens, 72 h, day 3
Description: as §1, §2

HS58T = assay type: cell-based; conditions: Homo sapiens, 72 h, day 3
Description: as §1, §2

OCVR4 = assay type: cell-based; conditions: Homo sapiens, 72 h; OCVR4, day 3
Description: as §1, §2

N#Cc1cc(=O)[nH]c(=O)n1[C@@H]1O[C@H](CO)C(O)C1O (stereo partly drawn)
pIC50 (LOX): < 4.30
pIC50 (PC3): < 4.30
pIC50 (OCI-AML-2): < 4.30
pIC50 (OCI-My-2): < 4.30
pIC50 (OCI-AML-1): < 4.30
pIC50 (OCI-Ly-7): < 4.30
pIC50 (COLO205): < 4.30
pIC50 (CCD967): < 4.30
pIC50 (MDA468): < 4.30
pIC50 (SNB19): < 4.30
pIC50 (MCF7): < 4.30
pIC50 (SKW3): < 4.30
pIC50 (T47D): < 4.30
pIC50 (HS58T): < 4.30
pIC50 (OCVR4): < 4.30

O=c1cc(I)n([C@@H]2O[C@H](CO)C(O)C2O)c(=O)[nH]1 (stereo partly drawn)
pIC50 (LOX): < 4.30
pIC50 (PC3): < 4.30
pIC50 (OCI-AML-2): < 4.30
pIC50 (OCI-My-2): 4.56
pIC50 (OCI-AML-1): 4.82
pIC50 (OCI-Ly-7): < 4.30
pIC50 (COLO205): < 4.30
pIC50 (CCD967): < 4.30
pIC50 (MDA468): < 4.30
pIC50 (SNB19): < 4.30
pIC50 (MCF7): < 4.30
pIC50 (SKW3): 4.72
pIC50 (T47D): < 4.30
pIC50 (HS58T): < 4.30
pIC50 (OCVR4): < 4.30

CCOC(=O)c1cc(=O)[nH]c(=O)n1[C@@H]1O[C@H](CO)C(O)C1O (stereo partly drawn)
pIC50 (LOX): < 4.30
pIC50 (PC3): < 4.30
pIC50 (OCI-AML-2): < 4.30
pIC50 (OCI-My-2): 4.37
pIC50 (OCI-AML-1): < 4.30
pIC50 (OCI-Ly-7): < 4.30
pIC50 (COLO205): < 4.30
pIC50 (CCD967): < 4.30
pIC50 (MDA468): < 4.30
pIC50 (SNB19): < 4.30
pIC50 (MCF7): < 4.30
pIC50 (SKW3): < 4.30
pIC50 (T47D): < 4.30
pIC50 (HS58T): < 4.30
pIC50 (OCVR4): < 4.30

[N-]=[N+]=Nc1cc(=O)[nH]c(=O)n1[C@@H]1O[C@H](CO)C(O)C1O (stereo partly drawn)
pIC50 (LOX): < 4.30
pIC50 (PC3): < 4.30
pIC50 (OCI-AML-2): < 4.30
pIC50 (OCI-My-2): < 4.30
pIC50 (OCI-AML-1): < 4.30
pIC50 (OCI-Ly-7): < 4.30
pIC50 (COLO205): < 4.30
pIC50 (CCD967): < 4.30
pIC50 (MDA468): < 4.30
pIC50 (SNB19): < 4.30
pIC50 (MCF7): < 4.30
pIC50 (SKW3): < 4.30
pIC50 (T47D): < 4.30
pIC50 (HS58T): < 4.30
pIC50 (OCVR4): < 4.30

Nc1cc(=O)[nH]c(=O)n1[C@@H]1O[C@H](CO)C(O)C1O (stereo partly drawn)
pIC50 (LOX): < 4.30
pIC50 (PC3): < 4.30
pIC50 (OCI-AML-2): < 4.30
pIC50 (OCI-My-2): < 4.30
pIC50 (OCI-AML-1): < 4.30
pIC50 (OCI-Ly-7): < 4.30
pIC50 (COLO205): < 4.30
pIC50 (CCD967): < 4.30
pIC50 (MDA468): < 4.30
pIC50 (SNB19): < 4.30
pIC50 (MCF7): < 4.30
pIC50 (SKW3): < 4.30
pIC50 (T47D): < 4.30
pIC50 (HS58T): < 4.30
pIC50 (OCVR4): < 4.30

CC(=O)OCC1OC(n2c(I)cc(=O)[nH]c2=O)C(O)C1O (stereo not drawn)
pIC50 (LOX): 5.96
pIC50 (PC3): < 4.30
pIC50 (OCI-AML-2): 4.93
pIC50 (OCI-My-2): 5.89
pIC50 (OCI-AML-1): 4.82
pIC50 (OCI-Ly-7): 4.44
pIC50 (COLO205): < 4.30
pIC50 (CCD967): < 4.30
pIC50 (MDA468): < 4.30
pIC50 (SNB19): < 4.30
pIC50 (MCF7): 5.36
pIC50 (SKW3): 5.80
pIC50 (T47D): < 4.30
pIC50 (HS58T): < 4.30
pIC50 (OCVR4): < 4.30

Cc1cc(=O)[nH]c(=O)n1C1OC(CO)C(O)C1O (stereo not drawn)
pIC50 (LOX): < 4.30
pIC50 (PC3): < 4.30
pIC50 (OCI-AML-2): < 4.30
pIC50 (OCI-My-2): < 4.30
pIC50 (OCI-AML-1): < 4.30
pIC50 (OCI-Ly-7): < 4.30
pIC50 (COLO205): < 4.30
pIC50 (CCD967): < 4.30
pIC50 (MDA468): < 4.30
pIC50 (SNB19): < 4.30
pIC50 (MCF7): < 4.30
pIC50 (SKW3): < 4.30
pIC50 (T47D): < 4.30
pIC50 (HS58T): < 4.30
pIC50 (OCVR4): < 4.30

O=c1[nH]c(=O)n([C@@H]2O[C@H](CO)C(O)C2O)c(I)c1Br (stereo partly drawn)
pIC50 (LOX): < 4.30
pIC50 (PC3): < 4.30
pIC50 (OCI-AML-2): < 4.30
pIC50 (OCI-My-2): < 4.30
pIC50 (OCI-AML-1): < 4.30
pIC50 (OCI-Ly-7): < 4.30
pIC50 (COLO205): < 4.30
pIC50 (CCD967): < 4.30
pIC50 (MDA468): < 4.30
pIC50 (SNB19): < 4.30
pIC50 (MCF7): < 4.30
pIC50 (SKW3): < 4.30
pIC50 (T47D): < 4.30
pIC50 (HS58T): < 4.30
pIC50 (OCVR4): < 4.30

CNc1cc(=O)[nH]c(=O)n1C1OC(CO)C(O)C1O (stereo not drawn)
pIC50 (LOX): < 4.30
pIC50 (PC3): < 4.30
pIC50 (OCI-AML-2): < 4.30
pIC50 (OCI-My-2): < 4.30
pIC50 (OCI-AML-1): < 4.30
pIC50 (OCI-Ly-7): < 4.30
pIC50 (COLO205): < 4.30
pIC50 (CCD967): < 4.30
pIC50 (MDA468): < 4.30
pIC50 (SNB19): < 4.30
pIC50 (MCF7): < 4.30
pIC50 (SKW3): < 4.30
pIC50 (T47D): < 4.30
pIC50 (HS58T): < 4.30
pIC50 (OCVR4): < 4.30

CN(C)c1cc(=O)[nH]c(=O)n1C1OC(CO)C(O)C1O (stereo not drawn)
pIC50 (LOX): < 4.30
pIC50 (PC3): < 4.30
pIC50 (OCI-AML-2): < 4.30
pIC50 (OCI-My-2): < 4.30
pIC50 (OCI-AML-1): < 4.30
pIC50 (OCI-Ly-7): < 4.30
pIC50 (COLO205): < 4.30
pIC50 (CCD967): < 4.30
pIC50 (MDA468): < 4.30
pIC50 (SNB19): < 4.30
pIC50 (MCF7): < 4.30
pIC50 (SKW3): < 4.30
pIC50 (T47D): < 4.30
pIC50 (HS58T): < 4.30
pIC50 (OCVR4): < 4.30

Cc1cc(=O)[nH]c(=O)n1C1CC(O)C(CO)O1 (stereo not drawn)
pIC50 (LOX): < 4.30
pIC50 (OCI-AML-2): < 4.30
pIC50 (OCI-My-2): < 4.30
pIC50 (OCI-AML-1): < 4.30
pIC50 (OCI-Ly-7): < 4.30
pIC50 (MDA468): < 4.30
pIC50 (MCF7): < 4.30
pIC50 (SKW3): < 4.30

O=C1C/C(=N\O)N(C2OC(CO)C(O)C2O)C(=O)N1 (stereo not drawn)
pIC50 (LOX): < 4.30
pIC50 (OCI-AML-2): < 4.30
pIC50 (OCI-My-2): < 4.30
pIC50 (OCI-AML-1): < 4.30
pIC50 (OCI-Ly-7): < 4.30
pIC50 (MDA468): < 4.30
pIC50 (MCF7): < 4.30
pIC50 (SKW3): < 4.30

O=Cc1cc(=O)[nH]c(=O)n1C1OC(CO)C(O)C1O (stereo not drawn)
pIC50 (LOX): < 4.30
pIC50 (OCI-AML-2): < 4.30
pIC50 (OCI-My-2): < 4.30
pIC50 (OCI-AML-1): < 4.30
pIC50 (OCI-Ly-7): < 4.30
pIC50 (MDA468): < 4.30
pIC50 (MCF7): < 4.30
pIC50 (SKW3): < 4.30

O=c1[nH]cc(F)c(=O)[nH]1 [5-Fluoro-uracil, reference compound]
pIC50 (OCI-AML-2): 5.80
pIC50 (OCI-AML-1): 6.00
pIC50 (SKW3): 5.68
